Data published in publication PMC6576746, “Rational discovery of dual-indication multi-target PDE/Kinase inhibitor for precision anti-cancer therapy using structural systems pharmacology” (PLoS Computational Biology, 2019).

Columns and labels:
Test in all cases: cells
Parameters in all cases: species or system panel of human cancer cell lines; Eurofins OncoPanel proliferation; nuclei count by high-content fluorescence imaging, 10-point dose response
A427 = settings: Homo sapiens, A-427, 72 h, cell count, 3 days
Procedure: (§1) OncoPanel cancer cell proliferation assay was performed by Eurofins Panlabs, Inc. (Missouri, USA). Cancer cells were grown in RPMI 1640, 10% FBS, 2 mM L-alanyl-L-glutamine, 1 mM Na pyruvate, or a special medium. Cells were seeded into 384-well plates and incubated in a humidified atmosphere of 5% CO2 at 37°C. Compounds were added the day following cell seeding. At the same time, a time zero untreated cell plate was generated. After a 3-day incubation period, cells were fixed and stained to allow fluorescence imaging of nuclei. Levosimendan was serially diluted in half-log steps from 100 μM and assayed over 10 concentrations with a maximum assay concentration of 0.1% DMSO. Automated fluorescence microscopy was carried out using a Molecular Devices ImageXpress Micro XL high-content imager, and images were collected with a 4X objective. 16-bit TIFF images were acquired and analyzed with MetaXpress 5.1.0.41 software. Cell count EC50 is the test concentration at the curve inflection point (parameter C), or half the effective response. IC50 is the test compound concentration at 50% of the maximum possible response. GI50 is the concentration needed to reduce the observed growth by half (midway between the relative cell count at the curve maximum and at the time of compound addition). Activity area is an estimate of the integrated area above the response curve. Activity area values range from 0–10, where a value of zero indicates no inhibition of proliferation at all concentrations, and a value of 10 indicates complete inhibition of proliferation at all concentrations.

KLE = settings: Homo sapiens, KLE, 72 h, cell count, 3 days
Procedure: as §1

SW480 = settings: Homo sapiens, SW480, 72 h, cell count, 3 days
Procedure: as §1

Colo 201 = settings: Homo sapiens, COLO 201, 72 h, cell count, 3 days
Procedure: as §1

DB = settings: Homo sapiens, DB, 72 h, cell count, 3 days
Procedure: as §1

HeLa = settings: Homo sapiens, HeLa, 72 h, cell count, 3 days
Procedure: as §1

DoTc2 4510 = settings: Homo sapiens, DoTc2-4510, 72 h, cell count, 3 days
Procedure: as §1

A204 = settings: Homo sapiens, A204, 72 h, cell count, 3 days
Procedure: as §1

Hs 695T = settings: Homo sapiens, Hs 695T, 72 h, cell count, 3 days
Procedure: as §1

WiDr = settings: Homo sapiens, WiDr, 72 h, cell count, 3 days
Procedure: as §1

DK-MG = settings: 72 h, cell count, 3 days
Procedure: as §1

FaDu = settings: Homo sapiens, FaDu, 72 h, cell count, 3 days
Procedure: as §1

SU-DHL-10 = settings: Homo sapiens, SU-DHL10, 72 h, cell count, 3 days
Procedure: as §1

UM-UC-3 = settings: Homo sapiens, UMUC3, 72 h, cell count, 3 days
Procedure: as §1

[1] = 50% of maximum possible response

IC50 (SW480; [1]): 15.3 µM | GI50 (SW480; corrected for time zero): 10.8 µM | EC50 (SW480; curve inflection point): 13.1 µM | IC50 (Colo 201; [1]): 68.3 µM | GI50 (Colo 201; corrected for time zero): 53.8 µM | EC50 (Colo 201; curve inflection point): 68.3 µM | IC50 (HeLa; [1]): 91.2 µM | GI50 (HeLa; corrected for time zero): 75 µM | EC50 (HeLa; curve inflection point): 91.2 µM | IC50 (SU-DHL-10; [1]): 13.3 µM | GI50 (SU-DHL-10; corrected for time zero): 12 µM | EC50 (SU-DHL-10; curve inflection point): 13.3 µM
SMILES: C[C@@H]1CC(=O)NN=C1c1ccc(NN=C(C#N)C#N)cc1 [levosimendan]
IC50 (A427; [1]): 23.6 µM | GI50 (A427; corrected for time zero): 18.4 µM | EC50 (A427; curve inflection point): 23.6 µM | IC50 (KLE; [1]): 85.4 µM | GI50 (KLE; corrected for time zero): 20.8 µM | EC50 (KLE; curve inflection point): 29.6 µM | IC50 (DB; [1]): 17.6 µM | GI50 (DB; corrected for time zero): 14.5 µM | EC50 (DB; curve inflection point): 17.6 µM | IC50 (DoTc2 4510; [1]): 14.6 µM | GI50 (DoTc2 4510; corrected for time zero): 11.4 µM | EC50 (DoTc2 4510; curve inflection point): 10.8 µM | IC50 (A204; [1]): 9.19 µM | GI50 (A204; corrected for time zero): 7.57 µM | EC50 (A204; curve inflection point): 7.85 µM | IC50 (Hs 695T; [1]): 44.9 µM | GI50 (Hs 695T; corrected for time zero): 15.2 µM | EC50 (Hs 695T; curve inflection point): 26.7 µM | IC50 (WiDr; [1]): 77.6 µM | GI50 (WiDr; corrected for time zero): 70.6 µM | EC50 (WiDr; curve inflection point): 77.6 µM | IC50 (DK-MG; [1]): > 100 µM | GI50 (DK-MG; corrected for time zero): 49.4 µM | EC50 (DK-MG; curve inflection point): > 100 µM | IC50 (FaDu; [1]): 63.1 µM | GI50 (FaDu; corrected for time zero): 56.4 µM | EC50 (FaDu; curve inflection point): 63.1 µM | IC50 (UM-UC-3; [1]): 48.5 µM | GI50 (UM-UC-3; corrected for time zero): 46 µM | EC50 (UM-UC-3; curve inflection point): 48.5 µM
